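Where inhibition never reached the appropriate level, the endpoint shown equals the highest concentration tested. Otherwise, values were interpolated linearly from a five-concentration, 48-hour dose response in 96-well plates. GI50 is the concentration that inhibits growth by half. TGI denotes the concentration required for complete inhibition of growth.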
How the values were obtained:
Test in all cases: NCI anticancer screen, dose series, 48 h
786-0 renal = test system: 786-0 renal
A498 renal = test system: A498 renal
A549 NSCLC = test system: A549 NSCLC
ACHN renal = test system: ACHN renal
BT-549 breast = test system: BT-549 breast
CAKI-1 renal = test system: CAKI-1 renal
CCRF-CEM leukemia = test system: CCRF-CEM leukemia
COLO 205 colon = test system: COLO 205 colon
DU-145 prostate = test system: DU-145 prostate
EKVX NSCLC = test system: EKVX NSCLC
HCC-2998 colon = test system: HCC-2998 colon
HCT-116 colon = test system: HCT-116 colon
HCT-15 colon = test system: HCT-15 colon
HL-60(TB) leukemia = test system: HL-60(TB) leukemia
HOP-62 NSCLC = test system: HOP-62 NSCLC
HOP-92 NSCLC = test system: HOP-92 NSCLC
HS 578T breast = test system: HS 578T breast
HT29 colon = test system: HT29 colon
IGROV1 ovarian = test system: IGROV1 ovarian
K-562 leukemia = test system: K-562 leukemia
KM12 colon = test system: KM12 colon
LOX IMVI melanoma = test system: LOX IMVI melanoma
M14 melanoma = test system: M14 melanoma
MALME-3M melanoma = test system: MALME-3M melanoma
MCF7 breast = test system: MCF7 breast
MDA-MB-231 breast = test system: MDA-MB-231 breast
MDA-MB-435 = test system: MDA-MB-435
MOLT-4 leukemia = test system: MOLT-4 leukemia
NCI-H226 lung = test system: NCI-H226 lung
NCI-H23 lung = test system: NCI-H23 lung
NCI-H460 lung = test system: NCI-H460 lung
NCI-H522 lung = test system: NCI-H522 lung
NCI/ADR-RES ovarian = test system: NCI/ADR-RES ovarian
OVCAR-3 ovarian = test system: OVCAR-3 ovarian
OVCAR-4 ovarian = test system: OVCAR-4 ovarian
OVCAR-5 ovarian = test system: OVCAR-5 ovarian
OVCAR-8 ovarian = test system: OVCAR-8 ovarian
PC-3 prostate = test system: PC-3 prostate
RPMI-8226 leukemia = test system: RPMI-8226 leukemia
RXF 393 renal = test system: RXF 393 renal
SF-268 CNS = test system: SF-268 CNS
SF-295 CNS = test system: SF-295 CNS
SF-539 CNS = test system: SF-539 CNS
SK-MEL-2 melanoma = test system: SK-MEL-2 melanoma
SK-MEL-28 melanoma = test system: SK-MEL-28 melanoma
SK-MEL-5 melanoma = test system: SK-MEL-5 melanoma
SK-OV-3 ovarian = test system: SK-OV-3 ovarian
SN12C renal = test system: SN12C renal
SNB-19 CNS = test system: SNB-19 CNS
SNB-75 CNS = test system: SNB-75 CNS
SR leukemia = test system: SR leukemia
SW-620 colon = test system: SW-620 colon
T-47D breast = test system: T-47D breast
TK-10 renal = test system: TK-10 renal
U251 CNS = test system: U251 CNS
UACC-257 melanoma = test system: UACC-257 melanoma
UACC-62 melanoma = test system: UACC-62 melanoma
UO-31 renal = test system: UO-31 renal

SMILES: CCN(Cc1ccc(F)cc1)c1ccc(CO)c(Cl)c1
- GI50 (786-0 renal): 4.6 µM
- TGI (786-0 renal): 23.3 µM
- GI50 (A498 renal): 0.019 µM
- TGI (A498 renal): 0.0936 µM
- GI50 (A549 NSCLC): 1.16 µM
- TGI (A549 NSCLC): 22.6 µM
- GI50 (ACHN renal): 10.2 µM
- TGI (ACHN renal): > 48.6 µM
- GI50 (BT-549 breast): 9.27 µM
- TGI (BT-549 breast): 29.7 µM
- GI50 (CAKI-1 renal): 0.487 µM
- TGI (CAKI-1 renal): 8.79 µM
- GI50 (CCRF-CEM leukemia): 15.9 µM
- TGI (CCRF-CEM leukemia): 62.6 µM
- GI50 (COLO 205 colon): 1.35 µM
- TGI (COLO 205 colon): 3.77 µM
- GI50 (DU-145 prostate): 15.2 µM
- TGI (DU-145 prostate): > 49.2 µM
- GI50 (EKVX NSCLC): 17.5 µM
- TGI (EKVX NSCLC): 57.5 µM
- GI50 (HCC-2998 colon): 10.3 µM
- TGI (HCC-2998 colon): 28.3 µM
- GI50 (HCT-116 colon): 0.0661 µM
- TGI (HCT-116 colon): 3.02 µM
- GI50 (HCT-15 colon): 5.15 µM
- TGI (HCT-15 colon): 50.7 µM
- GI50 (HL-60(TB) leukemia): 3.63 µM
- TGI (HL-60(TB) leukemia): 23.3 µM
- GI50 (HOP-62 NSCLC): 0.576 µM
- TGI (HOP-62 NSCLC): 25.1 µM
- GI50 (HOP-92 NSCLC): 0.956 µM
- TGI (HOP-92 NSCLC): 13.1 µM
- GI50 (HS 578T breast): 17.8 µM
- TGI (HS 578T breast): > 66.2 µM
- GI50 (HT29 colon): 3.02 µM
- TGI (HT29 colon): 16.1 µM
- GI50 (IGROV1 ovarian): 0.0776 µM
- TGI (IGROV1 ovarian): 0.605 µM
- GI50 (K-562 leukemia): 1.57 µM
- TGI (K-562 leukemia): > 100 µM
- GI50 (KM12 colon): 16.3 µM
- TGI (KM12 colon): 40.3 µM
- GI50 (LOX IMVI melanoma): 7.76 µM
- TGI (LOX IMVI melanoma): 20.7 µM
- GI50 (M14 melanoma): 12.5 µM
- TGI (M14 melanoma): > 51.8 µM
- GI50 (MALME-3M melanoma): 15 µM
- TGI (MALME-3M melanoma): 35.9 µM
- GI50 (MCF7 breast): 0.155 µM
- TGI (MCF7 breast): 7.05 µM
- GI50 (MDA-MB-231 breast): 15.6 µM
- TGI (MDA-MB-231 breast): 51.5 µM
- GI50 (MDA-MB-435): 19.9 µM
- TGI (MDA-MB-435): 73.2 µM
- GI50 (MOLT-4 leukemia): 15.1 µM
- TGI (MOLT-4 leukemia): 42.6 µM
- GI50 (NCI-H226 lung): 0.0306 µM
- TGI (NCI-H226 lung): 0.116 µM
- GI50 (NCI-H23 lung): 5.79 µM
- TGI (NCI-H23 lung): 49.1 µM
- GI50 (NCI-H460 lung): 0.213 µM
- TGI (NCI-H460 lung): 11.7 µM
- GI50 (NCI-H522 lung): 14.5 µM
- TGI (NCI-H522 lung): 40.1 µM
- GI50 (NCI/ADR-RES ovarian): 11.6 µM
- TGI (NCI/ADR-RES ovarian): 34.4 µM
- GI50 (OVCAR-3 ovarian): 0.704 µM
- TGI (OVCAR-3 ovarian): 6.18 µM
- GI50 (OVCAR-4 ovarian): 0.298 µM
- TGI (OVCAR-4 ovarian): 7.48 µM
- GI50 (OVCAR-5 ovarian): 0.103 µM
- TGI (OVCAR-5 ovarian): 0.525 µM
- GI50 (OVCAR-8 ovarian): 9.24 µM
- TGI (OVCAR-8 ovarian): 43.5 µM
- GI50 (PC-3 prostate): 14.3 µM
- TGI (PC-3 prostate): 49.4 µM
- GI50 (RPMI-8226 leukemia): 3.68 µM
- TGI (RPMI-8226 leukemia): 36.3 µM
- GI50 (RXF 393 renal): 2.81 µM
- TGI (RXF 393 renal): 21.2 µM
- GI50 (SF-268 CNS): 19.8 µM
- TGI (SF-268 CNS): > 55.7 µM
- GI50 (SF-295 CNS): 0.714 µM
- TGI (SF-295 CNS): 14 µM
- GI50 (SF-539 CNS): 15.1 µM
- TGI (SF-539 CNS): 35.1 µM
- GI50 (SK-MEL-2 melanoma): 2.03 µM
- TGI (SK-MEL-2 melanoma): 13.9 µM
- GI50 (SK-MEL-28 melanoma): 14.5 µM
- TGI (SK-MEL-28 melanoma): 39.3 µM
- GI50 (SK-MEL-5 melanoma): 1.86 µM
- TGI (SK-MEL-5 melanoma): 15.2 µM
- GI50 (SK-OV-3 ovarian): 3.86 µM
- TGI (SK-OV-3 ovarian): 25.2 µM
- GI50 (SN12C renal): 12.1 µM
- TGI (SN12C renal): 33.4 µM
- GI50 (SNB-19 CNS): 19.6 µM
- TGI (SNB-19 CNS): > 59.8 µM
- GI50 (SNB-75 CNS): 4.58 µM
- TGI (SNB-75 CNS): 39.6 µM
- GI50 (SR leukemia): 15.3 µM
- TGI (SR leukemia): 51.5 µM
- GI50 (SW-620 colon): 0.838 µM
- TGI (SW-620 colon): > 41 µM
- GI50 (T-47D breast): 0.0821 µM
- TGI (T-47D breast): 0.472 µM
- GI50 (TK-10 renal): 0.0366 µM
- TGI (TK-10 renal): 0.181 µM
- GI50 (U251 CNS): 0.654 µM
- TGI (U251 CNS): 15.1 µM
- GI50 (UACC-257 melanoma): 0.0835 µM
- TGI (UACC-257 melanoma): 0.285 µM
- GI50 (UACC-62 melanoma): 0.0693 µM
- TGI (UACC-62 melanoma): 0.522 µM
- GI50 (UO-31 renal): 3.02 µM
- TGI (UO-31 renal): 31.5 µM

Reference: PubChem BioAssay (NCI)
